Target: T1, CMKLR1 (Homo sapiens, UniProt Q99788)
T1 construct: expressed in transfected cells; host or cells: CHO-K1 cells expressing Gα-16 (CHO-Ga16-CMKLR1)
T1 sequence (Q99788 1-373): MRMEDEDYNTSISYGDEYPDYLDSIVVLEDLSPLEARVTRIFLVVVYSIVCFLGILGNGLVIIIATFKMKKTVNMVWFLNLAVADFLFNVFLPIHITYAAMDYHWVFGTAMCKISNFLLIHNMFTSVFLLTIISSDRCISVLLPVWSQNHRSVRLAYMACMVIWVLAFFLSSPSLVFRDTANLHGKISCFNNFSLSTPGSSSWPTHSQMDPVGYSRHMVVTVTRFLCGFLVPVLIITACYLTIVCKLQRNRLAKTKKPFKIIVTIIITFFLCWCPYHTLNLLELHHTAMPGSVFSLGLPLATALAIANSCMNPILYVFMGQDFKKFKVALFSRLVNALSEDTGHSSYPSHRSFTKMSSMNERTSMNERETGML
Experiment: Calcium mobilization assay (CHO-Ga16-CMKLR1 cells, chemerin-9 induced signal)
Format: cell-based
Details: for IC50: calcium signal induced by 2.5 nM chemerin-9; for inhibition at 10 µM: read-out: CMKLR1 activity in CHO cells (% inhibition at 10 µM), 10 µM compound, relative to calcium signal induced by 2.5 nM chemerin-9
Protocol: To establish a CMKLR1 calcium mobilization cell evaluation system, CHO-K1 cells expressing Gα-16 were transfected with pcDNA3.1-derived human CMKLR1-expressing plasmids using Lipofectamine 2000 (Invitrogen, Waltham, Massachusetts, USA). […] The established cell line (CHO-Ga16-CMKLR1) was cultured in F-12 medium (Invitrogen) supplemented with 10% (v/v) fetal bovine serum (FBS; Invitrogen), 0.5 mg/mL geneticin, 0.2 mg/mL hygromycin B (Clontech), and 1% (v/v) antibiotic-antimycotic solution (Invitrogen) under 5% CO2 at 37°C.
100 µL/well was added to a 96-well plate (Corning) and incubated for 24 h. The buffer solution was prepared by adding 1 M HEPES solution to Hanks' Balanced Salt Solution (HBSS) (Invitrogen) and adjusting the pH to 7.4 by dropwise addition of 1 M NaOH.
The fluorescent dye solution was prepared using the buffer provided with the Calcium 5 Assay Kit (Molecular Devices). 40 µL/well of dye solution was added to each well and incubated at 37°C in a 5% CO2 atmosphere for 30 min. […] The final DMSO concentration was adjusted to 2%. 40 µL of each compound solution was added to the well and incubated for 30 min. […] Prism 5 software (GraphPad) was then used to obtain IC50 values for various compounds. IC50 values were derived based on concentration-response curves, and all experiments were repeated at least three times.

Structure (SMILES)	IC50 (Table 4, IC50 class)	IC50 (Table 3, IC50 class)	other results
CC(=O)Nc1ccc(-c2nn(C3CCCC3)c3cc(COc4ccc(C(C)CC(=O)O)cc4)ccc23)cc1 (stereo not drawn) [Compound 61, 3-(4-((3-(4-acetamidophenyl)-1-cyclopentyl-1H-indazol-6-yl)methoxy)phenyl)butanoic acid]	> 1000 nM	–	–
CC(CC(=O)O)c1ccc(OCc2ccc3c(-c4ccccc4)nn(Cc4ccccc4)c3c2)cc1 (stereo not drawn) [Compound 85]	–	–	inhibition at 10 µM: 23%
CC(C)C(CC(=O)O)c1ccc(OCc2ccc3c(-c4ccccc4)nn(C(C)C)c3c2)cc1 (stereo not drawn) [Compound 8, 3-(4-((1-isopropyl-3-phenyl-1H-indazol-6-yl)methoxy)phenyl)-4-methylpentanoic acid]	–	–	inhibition at 10 µM: 25%
CC(CC(=O)O)c1ccc(OCc2ccc3c(-c4ccccc4)nn(C(C)C)c3c2)cc1 (stereo not drawn) [Compound 7, 3-(4-((1-isopropyl-3-phenyl-1H-indazol-6-yl)methoxy)phenyl)butanoic acid]	–	–	inhibition at 10 µM: 81%
C[C@@H](CC(=O)O)c1ccc(OCc2ccc3c(-c4cccc(CO)c4)nn(C4CCCC4)c3c2)cc1 [Compound 54, (S)-3-(4-((1-cyclopentyl-3-(3-(hydroxymethyl)phenyl)-1H-indazol-6-yl)methoxy)phenyl)butanoic acid]	> 1000 nM	–	–
CC(CC(=O)O)c1ccc(OCc2ccc3c(-c4cc5ccccc5s4)nn(C4CCCC4)c3c2)cc1 (stereo not drawn) [Compound 25, 3-(4-((3-(benzo[b]thiophen-2-yl)-1-cyclopentyl-1H-indazol-6-yl)methoxy)phenyl)butanoic acid]	–	–	IC50 (Table 2, IC50 class): > 1000 nM
CC(CC(=O)O)c1ccc(OCc2ccc3c(-c4ccncc4)nn(C4CCCC4)c3c2)cc1 (stereo not drawn) [Compound 23, 3-(4-((1-cyclopentyl-3-(pyridin-4-yl)-1H-indazol-6-yl)methoxy)phenyl)butanoic acid]	–	–	IC50 (Table 2, IC50 class): > 1000 nM
Cc1ccc(-c2nn(C3CCCC3)c3cc(COc4ccc(C(C)CC(=O)O)cc4)ccc23)cc1 (stereo not drawn) [Compound 11, 3-(4-((1-cyclopentyl-3-(p-tolyl)-1H-indazol-6-yl)methoxy)phenyl)butanoic acid]	–	–	IC50 (Table 2, IC50 class): > 1000 nM
C[C@@H](CC(=O)O)c1ccc(OCc2ccc3c(-c4ccc(C(=O)O)cc4)nn(C4CCCC4)c3c2)cc1 [Compound 51, (S)-4-(6-((4-(1-carboxypropan-2-yl)phenoxy)methyl)-1-cyclopentyl-1H-indazol-3-yl)benzoic acid]	–	100 to 1000 nM	–
C=CCOc1ccc(-c2nn(C3CCCC3)c3cc(COc4ccc(C(C)CC(=O)O)cc4)ccc23)cc1 (stereo not drawn) [Compound 30, 3-(4-((3-(4-(allyloxy)phenyl)-1-cyclopentyl-1H-indazol-6-yl)methoxy)phenyl)butanoic acid]	–	100 to 1000 nM	–
CC(CC(=O)O)c1ccc(OCc2ccc3c(-c4ccccc4)nn(CC4CC4)c3c2)cc1 (stereo not drawn) [Compound 81, 3-(4-((1-(cyclopropylmethyl)-3-phenyl-1H-indazol-6-yl)methoxy)phenyl)butanoic acid]	–	–	inhibition at 10 µM: 35%
C[C@@H](CC(=O)O)c1ccc(OCc2ccc3c(-c4cc(Cl)c(O)c(Cl)c4)nn(C4CCCC4)c3c2)cc1 [Compound 44, (S)-3-(4-((1-cyclopentyl-3-(3,5-dichloro-4-hydroxyphenyl)-1H-indazol-6-yl)methoxy)phenyl)butanoic acid]	–	100 to 1000 nM	–
CC(CC(=O)O)c1ccc(OCc2ccc3c(-c4ccc(N)cc4)nn(C4CCCC4)c3c2)cc1 (stereo not drawn) [Compound 59, 3-(4-((3-(4-aminophenyl)-1-cyclopentyl-1H-indazol-6-yl)methoxy)phenyl)butanoic acid]	> 1000 nM	–	–
CC(CC(=O)O)c1ccc(OCc2ccc3c(-c4ccc(Cl)cc4)nn(C4CCCC4)c3c2)cc1 (stereo not drawn) [Compound 18, 3-(4-((3-(4-chlorophenyl)-1-cyclopentyl-1H-indazol-6-yl)methoxy)phenyl)butanoic acid]	–	–	IC50 (Table 2, IC50 class): > 1000 nM
CC(CC(=O)O)c1ccc(OCc2ccc3c(-c4cccc(O)c4)nn(C4CCCC4)c3c2)cc1 (stereo not drawn) [Compound 14, 3-(4-((1-cyclopentyl-3-(3-hydroxyphenyl)-1H-indazol-6-yl)methoxy)phenyl)butanoic acid]	–	–	IC50 (Table 2, IC50 class): > 1000 nM
CCC(CC)Oc1ccc(-c2nn(C3CCCC3)c3cc(COc4ccc(C(C)CC(=O)O)cc4)ccc23)cc1 (stereo not drawn) [Compound 27, 3-(4-((1-cyclopentyl-3-(4-(pentan-3-yloxy)phenyl)-1H-indazol-6-yl)methoxy)phenyl)butanoic acid]	–	–	IC50 (Table 2, IC50 class): > 1000 nM
CC(C)Cn1nc(-c2ccccc2)c2ccc(COc3ccc(C(C)CC(=O)O)cc3)cc21 (stereo not drawn) [Compound 80, 3-(4-((1-isobutyl-3-phenyl-1H-indazol-6-yl)methoxy)phenyl)butanoic acid]	–	–	inhibition at 10 µM: 52%
CC(C)n1nc(-c2ccccc2)c2ccc(COc3ccc(CC(C)(C)C(=O)O)cc3)cc21 [Compound 3, 3-(4-((1-isopropyl-3-phenyl-1H-indazol-6-yl)methoxy)phenyl)-2,2-dimethylpropanoic acid]	–	–	inhibition at 10 µM: 10%
CC(CC(=O)O)c1ccc(OCc2ccc3c(-c4cc(Cl)nc(Cl)c4)nn(C4CCCC4)c3c2)cc1 (stereo not drawn) [Compound 33, 3-(4-((1-cyclopentyl-3-(2,6-dichloropyridin-4-yl)-1H-indazol-6-yl)methoxy)phenyl)butanoic acid]	–	> 1000 nM	–

Second part, led by results:

IC50 (Table 4, IC50 class)	IC50 (Table 3, IC50 class)	Structure (SMILES)	other results
–	> 1000 nM	CC(CC(=O)O)c1ccc(OCc2ccc3c(-c4ccc5c(c4)OCO5)nn(C4CCCC4)c3c2)cc1 (stereo not drawn) [Compound 31, 3-(4-((3-(Benzo[d][1,3]dioxol-5-yl)-1-cyclopentyl-1H-indazol-6-yl)methoxy)phenyl)butanoic acid]	–
100 to 1000 nM	–	CC(CC(=O)O)c1ccc(OCc2cnc3c(-c4ccc(O)c(Cl)c4)nn(C4CCCC4)c3c2)cc1 (stereo not drawn) [Compound 75, 3-(4-((3-(3-chloro-4-hydroxyphenyl)-1-cyclopentyl-1H-pyrazolo[4,3-b]pyridin-6-yl)methoxy)phenyl)butanoic acid]	–
–	< 100 nM	C[C@@H](CC(=O)O)c1ccc(OCc2ccc3c(-c4cc(F)c(CO)c(F)c4)nn(C4CCCC4)c3c2)cc1 [Compound 47, (S)-3-(4-((1-cyclopentyl-3-(3,5-difluoro-4-(hydroxymethyl)phenyl)-1H-indazol-6-yl)methoxy)phenyl)butanoic acid]	–
–	> 1000 nM	C[C@@H](CC(=O)O)c1ccc(OCc2ccc3c(-c4ccc(O)c(O)c4)nn(C4CCCC4)c3c2)cc1 [Compound 38]	–
> 1000 nM	–	C[C@@H](CC(=O)O)c1ccc(OCc2ccc3c(-c4ccc(O)c(F)c4F)nn(C4CCCC4)c3c2)cc1 [Compound 55, (S)-3-(4-((1-cyclopentyl-3-(2,3-difluoro-4-hydroxyphenyl)-1H-indazol-6-yl)methoxy)phenyl)butanoic acid]	–
100 to 1000 nM	–	C[C@@H](CC(=O)O)c1ccc(OCc2ccc3c(-c4ccc(C(=O)O)cc4F)nn(C4CCCC4)c3c2)cc1 [Compound 52, (S)-4-(6-((4-(1-carboxypropan-2-yl)phenoxy)methyl)-1-cyclopentyl-1H-indazol-3-yl)-3-fluorobenzoic acid]	–
–	100 to 1000 nM	CC(CC(=O)O)c1ccc(OCc2ccc3c(-c4cc(F)c(/C=N/O)c(F)c4)nn(C4CCCC4)c3c2)cc1 (stereo not drawn) [Compound 34, (E)-3-(4-((1-cyclopentyl-3-(3,5-difluoro-4-((hydroxyimino)methyl)phenyl)-1H-indazol-6-yl)methoxy)phenyl)butanoic acid]	–
–	> 1000 nM	CC(CC(=O)O)c1ccc(OCc2ccc3c(-c4nnn[nH]4)nn(C4CCCC4)c3c2)cc1 (stereo not drawn) [Compound 32, 3-(4-((1-cyclopentyl-3-(1H-tetrazol-5-yl)-1H-indazol-6-yl)methoxy)phenyl)butanoic acid]	–
100 to 1000 nM	–	CC(CC(=O)O)c1ccc(OCc2cnc3c(-c4cc(Cl)c(O)c(Cl)c4)nn(C4CCCC4)c3c2)cc1 (stereo not drawn) [Compound 73, 3-(4-((1-cyclopentyl-3-(3,5-dichloro-4-hydroxyphenyl)-1H-pyrazolo[4,3-b]pyridin-6-yl)methoxy)phenyl)butanoic acid]	–
100 to 1000 nM	–	Cc1cc(-c2nn(C3CCCC3)c3cc(COc4ccc([C@@H](C)CC(=O)O)cc4)ccc23)cc(C)c1O [Compound 53, (S)-3-(4-((1-cyclopentyl-3-(4-hydroxy-3,5-dimethylphenyl)-1H-indazol-6-yl)methoxy)phenyl)butanoic acid]	–
100 to 1000 nM	–	CC(CC(=O)O)c1ccc(OCc2cnc3c(-c4ccc(O)cc4)nn(C4CCCC4)c3c2)cc1 (stereo not drawn) [Compound 72, 3-(4-((1-cyclopentyl-3-(4-hydroxyphenyl)-1H-pyrazolo[4,3-b]pyridin-6-yl)methoxy)phenyl)butanoic acid]	–

From EP4775568A1, “NOVEL COMPOUND AND USE THEREOF FOR TREATING PSORIASIS” (Gwangju Institute of Science and Technology, priority 2023, dated 2025)
